According to patent US20110313156A1 (BOEHRINGER INGELHEIM INTERNATIONAL GMBH, priority 2008, published 2011):

Biological target: T1, His6-PDK1 (aa 52-556) (Homo sapiens, UniProt O15530)
T1 construct: 15 μL His6-PDK1 (aa 52-556) 3.33 ng/well); host or cells: baculovirus-infected insect cells
T1 sequence (O15530 52-556): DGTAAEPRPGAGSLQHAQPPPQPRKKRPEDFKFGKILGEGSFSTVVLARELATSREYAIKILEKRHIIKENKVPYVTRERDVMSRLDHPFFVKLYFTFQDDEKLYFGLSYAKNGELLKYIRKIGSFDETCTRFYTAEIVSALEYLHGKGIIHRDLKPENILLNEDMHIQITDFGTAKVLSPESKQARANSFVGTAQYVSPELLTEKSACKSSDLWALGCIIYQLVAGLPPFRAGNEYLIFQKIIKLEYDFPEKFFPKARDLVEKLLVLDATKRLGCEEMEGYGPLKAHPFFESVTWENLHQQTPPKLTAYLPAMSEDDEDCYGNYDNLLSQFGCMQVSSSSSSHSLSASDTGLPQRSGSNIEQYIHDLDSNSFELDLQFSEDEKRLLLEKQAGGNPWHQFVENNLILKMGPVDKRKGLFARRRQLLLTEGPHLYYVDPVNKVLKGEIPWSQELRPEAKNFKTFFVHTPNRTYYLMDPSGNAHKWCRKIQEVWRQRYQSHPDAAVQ
Test: PDK1 kinase assay III (with Tween 20)
Assay type: biochemical
Settings: compound at 10 μM; PDK1 kinase assay III (values without asterisk); read-out: % CTL (residual activity of the enzyme relative to DMSO control)
Procedure: Purified enzyme may be obtained for example from the University of Dundee, Scotland.
Another PDK1 assay was developed which by comparison with PDK1 assay 1 additionally contains Tween 20:
The final concentration of Tween 20 is 0.005%.
The reaction is started by adding the ATP solution and the mixture is incubated for 90 min at ambient temperature; at the start of the reaction the dishes are shaken gently. The reaction is stopped by the addition of 50 μL/well of 500 mM phosphoric acid (H3PO4) and incubated for about 20 min at ambient temperature. […] The measured data are evaluated using Graphpad Prism software.
The % CTL values indicate the residual activity of the enzyme after the addition of the inhibitory compound in the solvent DMSO in relation to the enzyme activity in the solvent DMSO without the addition of a compound (control). The majority of the values were determined using the PDK1 kinase assay III described hereinbefore. The values marked with an asterisk (* or**) were determined using the PDK1 kinase assay II described hereinbefore (one asterisk→incubation for 24 h; two asterisks→incubation for 5 min)

Compound | remaining activity at 10 µM [%]
Cc1c(C(=O)NCC#Cc2ccc3nc(NC4CCOCC4)ncc3c2)c(=O)n(Cc2ccc(F)c(F)c2)n1C | 25
Cc1c(C(=O)NC/C=C/c2ccc3nc(Nc4ccc(C(=O)NC5CCN(C)CC5)c(F)c4)ncc3c2)c(=O)n(Cc2ccc(F)c(F)c2)n1C | 18.1
Cc1c(C(=O)NC/C=C/c2cc(OCCN)c3nc(Nc4ccccc4)ncc3c2)c(=O)n(Cc2ccc(F)c(F)c2)n1C | 19.5
Cc1c(C(=O)NCC#Cc2ccc3nc(Nc4ccc(C(=O)NC5CCN(C)CC5)c(Cl)c4)ncc3c2)c(=O)n(Cc2ccc(F)c(F)c2)n1C | 16.1
Cc1c(C(=O)NCC#Cc2ccc3nc(Nc4ccc(C(=O)NCCN(C)C)cc4)ncc3c2)c(=O)n(Cc2ccc(F)c(F)c2)n1C | 10.8
Cc1nc[nH]c1/C=C1\C(=O)Nc2cc(/C=C/CNC(=O)c3cncn(Cc4ccc(F)c(F)c4)c3=O)cc(F)c21 [I-47, 1-(3,4-difluorobenzyl)-N-[(2E)-3-{(3Z)-4-fluoro-3-[(4-methyl-1H-imidazol-5-yl)methylidene]-2-oxo-2,3-dihydro-1H-indol-6-yl}prop-2-en-1-yl]-6-oxo-1,6-dihydropyrimidine-5-carboxamide] | 17.2
Cc1c(C(=O)NC/C=C/c2ccc3c(c2)NC(=O)/C3=C\c2cnc[nH]2)c(=O)n(Cc2ccc(F)c(F)c2)n1C [I-17, 2-(3,4-difluorobenzyl)-N-{(2E)-3-[(3Z)-3-(1H-imidazol-5-ylmethylidene)-2-oxo-2,3-dihydro-1H-indol-6-yl]prop-2-en-1-yl}-1,5-dimethyl-3-oxo-2,3-dihydro-1H-pyrazole-4-carboxamide] | 14.3
CC(C)Nc1ncc2cc(/C=C/CNC(=O)c3cccn(Cc4ccc(F)c(F)c4)c3=O)ccc2n1 [IV-91] | 26.1
Cc1c(C(=O)NCC#Cc2ccc3nc(Nc4ccc(C(=O)NC5CCC(C)CC5)cc4)ncc3c2)c(=O)n(Cc2ccc(F)c(F)c2)n1C (centres unmarked) | 20.8
O=C1Nc2cc(/C=C/CNC(=O)c3ccnn(Cc4ccc(F)c(F)c4)c3=O)ccc2/C1=C/c1cnc[nH]1 [I-6, 2-(3,4-difluorobenzyl)-N-{(2E)-3-[(3Z)-3-(1H-imidazol-5-ylmethylidene)-2-oxo-2,3-dihydro-1H-indol-6-yl]prop-2-en-1-yl}-3-oxo-2,3-dihydropyridazine-4-carboxamide] | 17.5
Cc1c(C(=O)NC/C=C/c2cc(OC3CCNC3)c3nc(Nc4ccc(N5CCOCC5)cc4)ncc3c2)c(=O)n(Cc2ccc(F)c(F)c2)n1C (centres unmarked) | 10.3
CCNc1ncc2cc(C#CCNC(=O)c3cncn(Cc4ccc(F)c(F)c4)c3=O)ccc2n1 | 17.6
Cc1c(C(=O)NC/C=C/c2ccc3nc(Nc4ccc(C(=O)NC5CCN(C)CC5)c(Cl)c4)ncc3c2)c(=O)n(Cc2ccc(F)c(F)c2)n1C | 14.4
CNC(=O)c1ccc(Nc2ncc3cc(/C=C/CNC(=O)c4c(C)n(C)n(Cc5ccc(F)c(F)c5)c4=O)ccc3n2)cc1Cl | 18.6

Continued, values first:

remaining activity at 10 µM [%] | Compound
43.9 | O=C(NCc1ccc(Nc2ncnc3[nH]ccc23)cc1)c1cncn(Cc2ccc(F)c(F)c2)c1=O [IV-27, 1-(3,4-difluorobenzyl)-6-oxo-N-[4-(7H-pyrrolo[2,3-d]pyrimidin-4-ylamino)benzyl]-1,6-dihydropyrimidine-5-carboxamide]
10.7 | CN1CCC(N(C)c2ccc(Nc3ncc4cc(C#CCNC(=O)c5nccn(Cc6ccc(F)c(F)c6)c5=O)ccc4n3)cc2)CC1 [III-34, 4-(3,4-difluorobenzyl)-N-{3-[2-({4-[methyl(1-methylpiperidin-4-yl)amino]phenyl}amino)quinazolin-6-yl]prop-2-yn-1-yl}-3-oxo-3,4-dihydropyrazine-2-carboxamide]
18.3 | CNc1ncc2cc(/C=C/CNC(=O)c3cncn(Cc4ccc(F)c(F)c4)c3=O)cc(OCCN)c2n1 [III-59]
11.7 | Cc1c(C(=O)NCC#Cc2ccc3nc(Nc4ccc(CN(C)C)cc4)ncc3c2F)c(=O)n(Cc2ccc(F)c(F)c2)n1C [III-25, 2-(3,4-difluorobenzyl)-N-{3-[2-({4-[(dimethylamino)methyl]phenyl}amino)-5-fluoroquinazolin-6-yl]prop-2-yn-1-yl}-1,5-dimethyl-3-oxo-2,3-dihydro-1H-pyrazole-4-carboxamide]
11.8 | Cc1c(/C=C/CNC(=O)c2cncn(Cc3ccc(F)c(F)c3)c2=O)c(=O)n(C(C)C)c2nc(Nc3ccc(N4CCOCC4)cc3)ncc12 [IV-38, 1-(3,4-difluorobenzyl)-N-{(2E)-3-[5-methyl-2-{[4-(morpholin-4-yl)phenyl]amino}-7-oxo-8-(propane-2-yl)-7,8-dihydropyrido[2,3-d]pyrimidin-6-yl]prop-2-en-1-yl}-6-oxo-1,6-dihydropyrimidine-5-carboxamide]
18.8 | O=C(NC/C=C/c1ccc2ncncc2c1)c1cncn(Cc2ccc(F)c(F)c2)c1=O [IV-56, 1-(3,4-difluorobenzyl)-6-oxo-N-[(2E)-3-(quinazolin-6-yl)prop-2-en-1-yl]-1,6-dihydropyrimidine-5-carboxamide]
12.8 | Cc1c(C(=O)NCC#Cc2ccc3nc(Nc4ccc(N(C)C5CCN(C)CC5)cc4)ncc3c2F)c(=O)n(Cc2ccc(F)c(F)c2)n1C [III-27, 2-(3,4-difluorobenzyl)-N-{3-[5-fluoro-2-({4-[methyl(1-methylpiperidin-4-yl)amino]phenyl}amino)quinazolin-6-yl]prop-2-yn-1-yl}-1,5-dimethyl-3-oxo-2,3-dihydro-1H-pyrazole-4-carboxamide]
16.9 | Cc1c(C(=O)NCC#Cc2ccc3c(-c4ccccc4)n[nH]c3c2)c(=O)n(Cc2ccc(F)c(F)c2)n1C [II-4, 2-(3,4-difluorobenzyl)-1,5-dimethyl-3-oxo-N-[3-(3-phenyl-1H-indazol-6-yl)prop-2-yn-1-yl]-2,3-dihydro-1H-pyrazole-4-carboxamide]
20.2 | CN(C)Cc1ccc(Nc2ncc3cc(N4CC(NC(=O)c5cncn(Cc6ccc(F)c(F)c6)c5=O)C4)ccc3n2)cc1 [IV-31, 1-(3,4-difluorobenzyl)-N-{1-[2-({4-[(dimethylamino)methyl]phenyl}amino)quinazolin-6-yl]azetidin-3-yl}-6-oxo-1,6-dihydropyrimidine-5-carboxamide]
27.7 | Cc1c(C(=O)NCc2ccc(-c3cnc4[nH]ccc4c3)s2)c(=O)n(Cc2ccc(F)c(F)c2)n1C [IV-42, 2-(3,4-difluorobenzyl)-1,5-dimethyl-3-oxo-N-{[5-(1H-pyrrolo[2,3-b]pyridin-5-yl)thiophen-2-yl]methyl}-2,3-dihydro-1H-pyrazole-4-carboxamide]
16.3 | CN1CCC(N(C)c2ccc(Nc3ncc4cc(/C=C/CNC(=O)c5cn(C)c(=O)n(Cc6ccc(F)c(F)c6)c5=O)ccc4n3)cc2)CC1 [IV-44, 3-(3,4-difluorobenzyl)-1-methyl-N-{(2E)-3-[2-({4-[methyl(1-methylpiperidin-4-yl)amino]phenyl}amino)quinazolin-6-yl]prop-2-en-1-yl}-2,4-dioxo-1,2,3,4-tetrahydro-pyrimidine-5-carboxamide]
12.4 | Cc1c(C(=O)NCC#Cc2ccc3cn[nH]c3c2)c(=O)n(Cc2ccc(F)c(F)c2)n1C [II-3, 2-(3,4-difluorobenzyl)-N-[3-(1H-indazol-6-yl)prop-2-yn-1-yl]-1,5-dimethyl-3-oxo-2,3-dihydro-1H-pyrazole-4-carboxamide]
14.4 | Cc1c(C(=O)NC/C=C/c2ccc3nc(Nc4ccc(CN(C)C)cc4)ncc3c2F)c(=O)n(Cc2ccc(F)c(F)c2)n1C [IV-34, 2-(3,4-difluorobenzyl)-N-{(2E)-3-[2-({4-[(dimethylamino)methyl]phenyl}amino)-5-fluoroquinazolin-6-yl]prop-2-en-1-yl}-1,5-dimethyl-3-oxo-2,3-dihydro-1H-pyrazole-4-carboxamide]
17.3 | CN1CCC(Nc2ccc(Nc3ncc4cc(/C=C/CNC(=O)c5cn(C)c(=O)n(Cc6ccc(F)c(F)c6)c5=O)ccc4n3)cc2F)CC1 [IV-43, 3-(3,4-difluorobenzyl)-N-{(2E)-3-[2-({3-fluoro-4-[(1-methylpiperidin-4-yl)amino]-phenyl}amino)quinazolin-6-yl]prop-2-en-1-yl}-1-methyl-2,4-dioxo-1,2,3,4-tetrahydro-pyrimidine-5-carboxamide]
16.5 | Cc1c(C(=O)NCC#Cc2ccc3c(-c4ccc(CN(C)C)cc4)n[nH]c3c2)c(=O)n(Cc2ccc(F)c(F)c2)n1C [II-8, 2-(3,4-difluorobenzyl)-N-[3-(3-{4-[(dimethylamino)methyl]phenyl}-1H-indazol-6-yl)prop-2-yn-1-yl]-1,5-dimethyl-3-oxo-2,3-dihydro-1H-pyrazole-4-carboxamide]
